Laboratory results from ChEMBL document CHEMBL1130646, “Excellent acceleration of the Diels-Alder reaction by microwave irradiation for the synthesis of new fluorine-substituted ligands of NMDA receptor” (Bioorg Med Chem Lett, 1998).

Target: Glutamate NMDA receptor
Experiment: Displacement of [3H]TCP from the TCP site of NMDA receptor in rat brain homogenate
Type: tissue-based

Row | Structure (SMILES) | IC50 [nM]
1 | FCCc1ccc(C2(c3cccs3)CC3c4ccccc4C2c2cccc[n+]23)s1 (stereo in doubt; 18) | 47
2 | OCCc1ccc(C2(c3cccs3)CC3c4ccccc4C2c2cccc[n+]23)s1 (stereo in doubt; 20) | 61
3 | c1ccc(C2(N3CCCCC3)CCCCC2)cc1 [PHENCYCLIDINE] | 47
4 | c1csc(C2(c3cccs3)CC3c4ccccc4C2c2cccc[n+]23)c1 (configuration not stated) | 3.6
5 | OCCc1ccc(C2(c3ccc(CCO)s3)CC3c4ccccc4C2c2cccc[n+]23)s1 (configuration not stated) | 12400
6 | FCCc1ccc(C2(c3cccs3)CC3c4ccccc4C2c2cccc[n+]23)s1 (stereo in doubt; 19) | 89
7 | OCCc1ccc(C2(c3cccs3)CC3c4ccccc4C2c2cccc[n+]23)s1 (stereo in doubt; 21) | 141
